Results published in patent publication US9539298B2, “Lissencephaly therapeutic agent” (OSAKA CITY UNIVERSITY, priority 2010, dated 2017).

System: fibroblasts established from LIS1 heterozygous mice (MEF)
Experiment: Change in intracellular protein localization by SNJ-1945 (immunocytochemistry)
Format: cell-based, mouse
Conditions: 200 μM, 2 hours
Protocol: A LIS1 gene hetero-deficient mice group and a wild-type mice (12.5- to 14.5-day-old embryos) group each consisting of five mice were prepared, and fibroblasts (MEF; mouse embryonic fibroblast) were established from each group in the same manner as above (more specifically, fibroblasts were established by grouping the same gene type). Using the cells, immunocytochemistry was performed as follows. The influence of SNJ-1945 on intracellular protein localization in each cell was analyzed. First, a slide glass (24×24 mm; Matsunami Glass Ind., Ltd.) washed beforehand with 0.1 N hydrochloric acid was placed on a 6-well plate (Nunc), and MEF cells were seeded in an amount of 1.0×10^5 cells per well in a D-MEM culture solution (containing 10% fetal bovine blood serum; Wako Pure Chemical Ind. Ltd.). Subsequently, the 6-well plate was cultured overnight at 37° C. under 5% CO2, and SNJ-1945 was added thereto so that the final concentration became 200 μM. The incubation was performed for another 2 hours under the same conditions.
As a control experiment, the same experiment was performed by adding 1% dimethylsulfoxide (DMSO). After washing with phosphate buffer (PBS), the MEF cells were immobilized using 4% paraformaldehyde (Wako, 162-16065) (at room temperature, for 15 minutes). […] After incubation, the cells were washed well with PBS, and embedded using glycerol (Merck) for fluorescence microscope observation. […]
After careful observation using a confocal laser microscope (TCS-SP5, Leica), the intracellular locations of the individual factors in MEF cells under varying conditions are classified into “cells clustered around the nucleus” and “cells distributed to the entire cytoplasm.” For each cell group, 10 samples, each of which consists of 10 arbitrarily extracted cells, i.e., 100 cells in total for each group, were evaluated, and the average value±standard deviation was calculated. […]

SMILES: COCCOCCOC(=O)N[C@@H](CC(C)C)C(=O)N[C@@H](Cc1ccccc1)C(=O)C(=O)NC1CC1 [compound 17, ((1S)-1-((((1S)-1-Benzyl-2,3-dioxo-3-(cyclopropylamino)propyl)amino)carbonyl)-3-methylbutyl)carbamic acid 5-methoxy-3-oxapentyl ester]
- LIS1 amount around the centrosome (intracellular localization) (FIG. 2): the LIS1 amount can be recovered
- cytoplasmatic dynein amount / localization (FIG. 3): the cytoplasmatic dynein amount can also be recovered
- β-COP distribution (FIG. 4): the distribution is normalized
